This note sets out measurements from patent US12673946B2, “Pyrimidin-4(3H)-one derivatives as TRPV4 antagonists” (RaQualia Pharma Inc., priority 2020, dated 2026).

The assay addresses T1, human TRPV4 (Homo sapiens, UniProt Q9HBA0).
T1 construct: host or cells: tetracycline-inducible Flp-In T-REx 293 cells
In words: Hypotonicity-induced Ca2+ influx (Fluo-4, FDSS). It counts as cell-based. As for the experimental part:
Hypotonicity-Induced Ca^2+ Influx
TRPV4 channel activation/opening results in an influx of Ca^2+ (Liedtke, W. et al., 2000 (NPL 1)). The resulting changes in intracellular calcium are monitored using a Ca^2+ sensitive fluorescent dye Fluo-4 (Invitrogen). Dye loaded cells are treated with the test compounds for 5 minutes prior to the addition of a hypotonic solution and the inhibition of the hypotonicity-induced activation is recorded.
Forty microL of tetracycline-inducible Flp-In T-REx 293 cells (Invitrogen) stably expressing human TRPV4 are seeded onto the poly-D-lysine coated 384-well plate (Corning) at a density of 10,000 cells per well. The following day, TRPV4 expression is induced by adding 0.5 microg/mL tetracycline for 20-24 hours. On the day of the experiment, the media is removed and replaced with 40 microL of dye loading buffer [1 microM Fluo-4 AM (Invitrogen), 0.01% Pluronic F-127, and 20 mM HEPES in Hanks' balanced salt solutions (HBSS; Invitrogen)] and then the cells are incubated for 60 minutes at 25° C. Dye is then removed and replaced with 20 microL of assay buffer (20 mM HEPES in HBSS). Five minutes prior to the fluorescence measurement, 10 microL of test compound is added to the cells. Using the FDSS instrument (Hamamatsu Photonics), 30 microL of hypotonic solution (90 mM D-mannitol and 1.26 mM CaCl2 in ultrapure water) is added 30 seconds after the start of measurement. The calcium flux signal is recorded for a total of 4.5 minutes.

[1] abbreviates: Flp-In T-REx 293 cells expressing human TRPV4, examples listed under heading 'Human IC50<50 nM'.
The mark [2] stands for this setting: Flp-In T-REx 293 cells stably expressing human TRPV4, compounds listed by potency bin (<10 nM Tables 96-1/96-2, <3 nM Table 97).

Some results are limits rather than exact numbers.

T1 sequence (Q9HBA0 whole entry): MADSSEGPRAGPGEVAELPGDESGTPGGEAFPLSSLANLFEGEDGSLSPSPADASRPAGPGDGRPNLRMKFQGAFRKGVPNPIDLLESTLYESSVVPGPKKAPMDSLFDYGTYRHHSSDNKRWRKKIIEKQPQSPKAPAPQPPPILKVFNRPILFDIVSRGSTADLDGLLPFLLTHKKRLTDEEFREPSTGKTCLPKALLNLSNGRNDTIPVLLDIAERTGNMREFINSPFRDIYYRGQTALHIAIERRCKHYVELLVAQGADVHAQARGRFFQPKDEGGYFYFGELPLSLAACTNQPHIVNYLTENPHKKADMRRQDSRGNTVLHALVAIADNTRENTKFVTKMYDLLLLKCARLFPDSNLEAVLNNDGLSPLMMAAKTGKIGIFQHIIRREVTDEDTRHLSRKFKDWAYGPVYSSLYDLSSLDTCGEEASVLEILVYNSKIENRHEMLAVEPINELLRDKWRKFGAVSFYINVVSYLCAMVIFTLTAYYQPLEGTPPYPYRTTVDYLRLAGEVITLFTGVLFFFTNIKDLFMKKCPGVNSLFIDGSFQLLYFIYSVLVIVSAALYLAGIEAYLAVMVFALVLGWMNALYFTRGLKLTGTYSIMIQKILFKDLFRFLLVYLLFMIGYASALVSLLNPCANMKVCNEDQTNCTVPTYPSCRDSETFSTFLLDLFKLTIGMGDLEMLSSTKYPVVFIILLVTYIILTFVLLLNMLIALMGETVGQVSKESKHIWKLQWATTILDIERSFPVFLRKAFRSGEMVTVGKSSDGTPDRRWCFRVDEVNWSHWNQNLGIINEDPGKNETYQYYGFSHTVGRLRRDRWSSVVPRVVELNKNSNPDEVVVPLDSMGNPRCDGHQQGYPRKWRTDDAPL

The molecule `O=C(C(O)c1cccc(Cl)c1F)N1CCc2nc(C3(c4ccccc4)CC3)[nH]c(=O)c2C1` (single isomer, unassigned) [3-69] displayed an IC50 under setting [1] of less than 50 nM.
In the case of `O=C(C(F)c1ccccc1)N1CCc2nc(C3(c4ccccc4)CC3)[nH]c(=O)c2C1` (stereo not drawn) [2-21], under setting [1], the IC50 was less than 50 nM.
Under setting [1], `O=C([C@H](O)c1cccc(Cl)c1)N1CCc2nc(C3(c4ccccc4)CC3)[nH]c(=O)c2C1` [2-33, (R)-6-(2-(3-chlorophenyl)-2-hydroxyacetyl)-2-(1-phenylcyclopropyl)-5,6,7,8-tetrahydropyrido[4,3-d]pyrimidin-4(3H)-one] had an IC50 of less than 50 nM.
In the case of `O=C([C@H](O)c1cccc(F)c1F)N1CCc2nc(C3(c4ccccc4)CC3)[nH]c(=O)c2C1` [2-34, (R)-(−)-6-(2-(2,3-difluorophenyl)-2-hydroxyacetyl)-2-(1-phenylcyclopropyl)-5,6,7,8-tetrahydropyrido[4,3-d]pyrimidin-4(3H)-one], the half-inhibitory concentration (IC50) under setting [1] is less than 50 nM.
On the same count and under the same terms, with `O=C([C@H](O)c1cccc(Cl)c1)N1CCc2nc(C3(c4ccc(Cl)cc4)CC3)[nH]c(=O)c2C1` [3-21] the figure was less than 50 nM; with `O=C([C@H](O)c1cccc(Cl)c1)N1CCc2nc(C3(c4ccc(F)cc4)CC3)[nH]c(=O)c2C1` [3-22], less than 50 nM; with `O=C(C(O)c1cccc(F)c1F)N1CCc2nc(C3(c4cccc(F)c4)CC3)[nH]c(=O)c2C1` (stereo not drawn) [3-28], less than 50 nM.
Turning to `O=C([C@H](O)c1cccc(Cl)c1)N1CCc2nc(C3(c4cccc(F)c4)CC3)[nH]c(=O)c2C1` [3-31], under setting [1], the IC50 is less than 50 nM.
Turning to `O=C([C@H](O)c1cccc(F)c1F)N1CCc2nc(C3(c4cccc(Cl)c4)CC3)[nH]c(=O)c2C1` [3-48], the IC50 under setting [1] is less than 50 nM.
Same read-out and setting: the value for `O=C([C@H](O)c1cccc(Cl)c1)N1CCc2nc(C3(c4cccc(Cl)c4)CC3)[nH]c(=O)c2C1` [3-50] was less than 50 nM.
In turn, `O=C([C@H](O)c1cccc(Cl)c1)N1CCc2nc(C3(c4cc(F)cc(F)c4)CC3)[nH]c(=O)c2C1` [3-58] had an IC50 under setting [1] of less than 50 nM.
Turning to `O=C(C(O)c1cc(Cl)cc(Cl)c1)N1CCc2nc(C3(c4ccccc4)CC3)[nH]c(=O)c2C1` (stereo not drawn) [3-62], under setting [1], the IC50 is less than 50 nM.
`O=C(C(O)c1cccc(C(F)(F)F)c1)N1CCc2nc(C3(c4ccccc4)CC3)[nH]c(=O)c2C1` (stereo not drawn) [3-66] came in with an IC50 under setting [1] of less than 50 nM.
On to `O=C(C(O)c1cccc(C(F)(F)F)c1)N1CCc2nc(C3(c4ccc(F)cc4)CC3)[nH]c(=O)c2C1` (stereo not drawn) [3-67], for which the IC50 under setting [1] is less than 50 nM.
Under setting [1], `O=C([C@H](O)c1cccc(C(F)(F)F)c1)N1CCc2nc(C3(c4ccccc4)CC3)[nH]c(=O)c2C1` [3-71] yielded an IC50 of less than 50 nM.
As to `O=C([C@H](O)c1cccc(C(F)(F)F)c1)N1CCc2nc(C3(c4cccc(Cl)c4)CC3)[nH]c(=O)c2C1` [3-72], the IC50 under setting [1] was less than 50 nM.
Under setting [1], `O=C([C@H](O)c1cccc(C(F)(F)F)c1)N1CCc2nc(C3(c4cccc(F)c4)CC3)[nH]c(=O)c2C1` [3-73] displayed an IC50 of less than 50 nM.
`O=C([C@H](O)c1cccc(Cl)c1)N1CCc2nc(C3(c4cccs4)CC3)[nH]c(=O)c2C1` [6-7] registered an IC50 under setting [1] of less than 50 nM.
Turning to `O=C([C@H](O)c1cccc(Cl)c1)N1CCc2nc(C3(c4cc(Br)cs4)CC3)[nH]c(=O)c2C1` [6-18], the IC50 under setting [1] was less than 50 nM.
Under setting [1], `Cc1csc(C2(c3nc4c(c(=O)[nH]3)CN(C(=O)[C@H](O)c3cccc(Cl)c3)CC4)CC2)c1` [6-20] displayed an IC50 of less than 50 nM.
With `O=C([C@H](O)c1cccc(Cl)c1)N1CCc2nc(C3(c4cc(-c5ccccc5)cs4)CC3)[nH]c(=O)c2C1` [6-21], the IC50 under setting [1] was less than 50 nM.
On the same count and under the same terms, the value for `O=C([C@H](O)c1cccc(F)c1F)N1CCCc2nc(C3(c4ccccc4)CC3)[nH]c(=O)c2C1` [10-6] was less than 50 nM; that for `O=C([C@H](O)c1cccc(Cl)c1)N1CCCc2nc(C3(c4ccccc4)CC3)[nH]c(=O)c2C1` [10-7] was less than 50 nM.
Still for that read-out and setting: with `O=C(C(O)c1ccnc(N2CCCCCC2)c1)N1CCc2nc(C3(c4ccccc4)CC3)[nH]c(=O)c2C1` (stereo not drawn) [11-3] the figure was less than 50 nM.
As to `O=C([C@H](O)c1cccc(Cl)c1)N1CCc2nc(C3(c4cccc(C5CCCCC5)c4)CC3)[nH]c(=O)c2C1` [14-1], the IC50 is, setting by setting: under setting [1], less than 50 nM; under setting [2], less than 3 nM.
Turning to `O=C([C@H](O)c1cccc(C(F)(F)F)c1)N1CCc2nc(C3(c4cccc(Oc5ccccc5)c4)CC3)[nH]c(=O)c2C1` [14-2], the half-maximal inhibitory concentration (IC50) by setting is: under setting [1], less than 50 nM; under setting [2], less than 10 nM.
Consider `O=C(C(O)c1cccc(-c2cnc3ccccc3c2)c1)N1CCc2nc(C3(c4cccc(Cl)c4)CC3)[nH]c(=O)c2C1` (stereo not drawn) [14-3], for which the IC50 runs as follows: under setting [1], less than 50 nM; under setting [2], less than 10 nM.
With `O=C([C@H](O)c1cccc(Cl)c1)N1CCc2nc(C3(c4cccc(Oc5ccccc5)c4)CC3)[nH]c(=O)c2C1` [14-4], the IC50 by setting is: under setting [1], less than 50 nM; under setting [2], less than 10 nM.
As to `O=C(C(O)c1cccc(-c2cccc(OC(F)(F)F)c2)c1)N1CCc2nc(C3(c4cccc(Cl)c4)CC3)[nH]c(=O)c2C1` (stereo not drawn) [14-5], the 50% inhibitory concentration (IC50) by setting is: under setting [1], less than 50 nM; under setting [2], less than 10 nM.
For the molecule `O=C(C(O)c1cccc(-c2cccc(C(F)(F)F)c2)c1)N1CCc2nc(C3(c4cccc(F)c4)CC3)[nH]c(=O)c2C1` (stereo not drawn) [14-6], the IC50 is less than 50 nM under setting [1] and less than 10 nM under setting [2].
Consider `O=C(C(O)c1cccc(-c2cccc(OC(F)(F)F)c2)c1)N1CCc2nc(C3(c4cccc(F)c4)CC3)[nH]c(=O)c2C1` (stereo not drawn) [14-7], for which the IC50 by setting is: under setting [1], less than 50 nM; under setting [2], less than 10 nM.
Take `O=C(C(O)c1cccc(-c2cccc(C(F)(F)F)c2)c1)N1CCc2nc(C3(c4cccc(Cl)c4)CC3)[nH]c(=O)c2C1` (stereo not drawn) [14-8]: the IC50 runs as follows: under setting [1], less than 50 nM; under setting [2], less than 10 nM.
The molecule `O=C(C(O)c1cccc(-c2ccc(Cl)cc2)c1)N1CCc2nc(C3(c4cccc(Cl)c4)CC3)[nH]c(=O)c2C1` (stereo not drawn) [14-9] returned an IC50 under setting [1] of less than 50 nM and an IC50 under setting [2] of less than 10 nM.
With `O=C([C@H](O)c1cccc(Cl)c1)N1CCc2nc(C3(c4cccc(-c5ccccc5)c4)CC3)[nH]c(=O)c2C1` [14-10], the IC50 by setting is: under setting [1], less than 50 nM; under setting [2], less than 10 nM.
For `CC(C)(C)c1cccc(C(O)C(=O)N2CCc3nc(C4(c5cccc(Cl)c5)CC4)[nH]c(=O)c3C2)c1` (stereo not drawn) [14-11], in that order: less than 50 nM and less than 10 nM.
In the case of `O=C(C(O)c1cccc(-c2cccc(F)c2)c1)N1CCc2nc(C3(c4cccc(Cl)c4)CC3)[nH]c(=O)c2C1` (stereo not drawn) [14-12], the IC50 under setting [1] was less than 50 nM and the IC50 under setting [2] is less than 10 nM.
For the molecule `CC(C)c1cccc(C2(c3nc4c(c(=O)[nH]3)CN(C(=O)[C@H](O)c3cccc(Cl)c3)CC4)CC2)c1` [14-13], the IC50 was less than 50 nM under setting [1] and less than 10 nM under setting [2].
Take `O=C(C(O)c1cccc(Oc2cccc(C(F)(F)F)c2)c1)N1CCc2nc(C3(c4ccccc4)CC3)[nH]c(=O)c2C1` (stereo not drawn) [14-14]: the IC50 under setting [1] is less than 50 nM.
In turn, `O=C(C(O)c1cccc(C2CC2)c1)N1CCc2nc(C3(c4cccc(Cl)c4)CC3)[nH]c(=O)c2C1` (stereo not drawn) [14-15] had an IC50 under setting [1] of less than 50 nM.
Molecule `CC(C)c1cccc(C(O)C(=O)N2CCc3nc(C4(c5cccc(Cl)c5)CC4)[nH]c(=O)c3C2)c1` (stereo not drawn) [14-16] yielded an IC50 under setting [1] of less than 50 nM.
Consider `O=C(C(O)c1cccc(S(F)(F)(F)(F)F)c1)N1CCc2nc(C3(c4cccc(Cl)c4)CC3)[nH]c(=O)c2C1` (stereo not drawn) [14-17], for which, under setting [1], the IC50 is less than 50 nM.
Under setting [1], `O=C(C(O)c1cccc(SC(F)(F)F)c1)N1CCc2nc(C3(c4cccc(Cl)c4)CC3)[nH]c(=O)c2C1` (stereo not drawn) [14-18] had an IC50 of less than 50 nM.
For `O=C(C(O)c1cccc(-c2cccc(F)c2)c1)N1CCc2nc(C3(c4cccc(F)c4)CC3)[nH]c(=O)c2C1` (stereo not drawn) [14-19], the IC50 under setting [1] was less than 50 nM.
On to `O=C(C(O)c1cccc(C(F)(F)F)c1F)N1CCc2nc(C3(c4cccc(Cl)c4)CC3)[nH]c(=O)c2C1` (stereo not drawn) [14-20], for which the IC50 under setting [1] is less than 50 nM.
In the case of `O=C(C(O)c1cccc(Oc2ccccc2)c1)N1CCc2nc(C3(c4cccc(Cl)c4)CC3)[nH]c(=O)c2C1` (stereo not drawn) [14-21], the IC50 under setting [1] is less than 50 nM.
Take `CC(C)(C)c1cccc(C(O)C(=O)N2CCc3nc(C4(c5cccc(F)c5)CC4)[nH]c(=O)c3C2)c1` (stereo not drawn) [14-22]: the IC50 under setting [1] was less than 50 nM.
For the molecule `O=C(C(O)c1cccc(S(F)(F)(F)(F)F)c1)N1CCc2nc(C3(c4cccc(F)c4)CC3)[nH]c(=O)c2C1` (stereo not drawn) [14-23], the IC50 under setting [1] is less than 50 nM.
With `O=C(C(O)c1cccc(-c2ccc(Cl)cc2)c1)N1CCc2nc(C3(c4cccc(F)c4)CC3)[nH]c(=O)c2C1` (stereo not drawn) [14-24], the half-inhibitory concentration (IC50) under setting [1] is less than 50 nM.
Still for that read-out and setting: the value for `O=C(C(O)c1cccc(SC(F)(F)F)c1)N1CCc2nc(C3(c4ccccc4)CC3)[nH]c(=O)c2C1` (stereo not drawn) [14-25] was less than 50 nM; that for `O=C([C@H](O)c1cccc(Cl)c1)N1CCc2nc(C3(c4cccc(Br)c4)CC3)[nH]c(=O)c2C1` [14-26] was less than 50 nM.
Turning to `O=C(C(O)c1cccc(SC(F)(F)F)c1)N1CCc2nc(C3(c4cccc(F)c4)CC3)[nH]c(=O)c2C1` (stereo not drawn) [14-27], the IC50 under setting [1] is less than 50 nM.
Still for that read-out and setting: the value for `O=C(C(O)c1cccc(Cl)c1F)N1CCc2nc(C3(c4cccc(Cl)c4)CC3)[nH]c(=O)c2C1` (stereo not drawn) [14-28] was less than 50 nM; that for `O=C(C(O)c1cccc(C(F)(F)F)c1F)N1CCc2nc(C3(c4cccc(F)c4)CC3)[nH]c(=O)c2C1` (stereo not drawn) [14-29] was less than 50 nM.
